{
  "source": "patent US8975232B2",
  "about": "“Macrocyclic kinase inhibitors and uses thereof” (President and Fellows of Harvard College, priority 2010, dated 2015)",
  "format_in_all_cases": "biochemical",
  "key": {"[1]": {"test_system": "panel of 44 human kinases", "test": "Kinase selectivity panel at 5 μM, Invitrogen SelectScreen", "conditions": "includes all nine Src-family kinases", "protocol": "(§1) Src IC50 determinations and single-point inhibition measurements were performed using Invitrogen's Z′-LYTE Tyr 02 assay kit according to the manufacturer's protocols. All kinase assays were performed at ATP concentrations near KM,ATP values, except where noted otherwise. Active human Src kinase was obtained from Millipore. For kinome profiling and IC50 determinations against non-Src kinases, compounds were submitted to Invitrogen's SelectScreen Kinase Profiling Service."}, "[2]": {"target": "ABL1 (Homo sapiens, UniProt P00519)", "test": "SelectScreen kinase profiling", "conditions": "ABL1; 5 μM", "protocol": "as §1"}, "[3]": {"target": "AMPK A1/B1/G1 (Homo sapiens, UniProt Q13131)", "test": "SelectScreen kinase profiling", "conditions": "5 μM", "protocol": "as §1"}, "[4]": {"target": "T1, AURKA (Aurora A) (Homo sapiens, UniProt O14965)", "T1 sequence (O14965 1-403)": "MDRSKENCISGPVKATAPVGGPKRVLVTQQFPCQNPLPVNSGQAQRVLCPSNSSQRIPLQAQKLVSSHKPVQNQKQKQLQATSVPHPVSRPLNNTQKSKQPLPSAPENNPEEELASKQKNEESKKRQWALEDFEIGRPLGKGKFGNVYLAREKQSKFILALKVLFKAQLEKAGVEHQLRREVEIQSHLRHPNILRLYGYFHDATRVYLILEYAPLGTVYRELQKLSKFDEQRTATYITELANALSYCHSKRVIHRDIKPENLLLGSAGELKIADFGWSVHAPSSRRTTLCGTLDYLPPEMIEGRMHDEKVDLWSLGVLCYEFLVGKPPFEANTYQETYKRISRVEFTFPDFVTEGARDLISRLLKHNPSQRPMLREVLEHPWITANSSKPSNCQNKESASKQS", "test": "SelectScreen kinase profiling", "conditions": "AURKA (Aurora A); 5 μM", "protocol": "as §1"}, "[5]": {"target": "AURKB (Aurora B) (Homo sapiens, UniProt Q96GD4)", "test": "SelectScreen kinase profiling", "conditions": "AURKB (Aurora B); 5 μM", "protocol": "as §1"}, "[6]": {"target": "BLK (Homo sapiens, UniProt P51451)", "sequence (P51451 whole entry)": "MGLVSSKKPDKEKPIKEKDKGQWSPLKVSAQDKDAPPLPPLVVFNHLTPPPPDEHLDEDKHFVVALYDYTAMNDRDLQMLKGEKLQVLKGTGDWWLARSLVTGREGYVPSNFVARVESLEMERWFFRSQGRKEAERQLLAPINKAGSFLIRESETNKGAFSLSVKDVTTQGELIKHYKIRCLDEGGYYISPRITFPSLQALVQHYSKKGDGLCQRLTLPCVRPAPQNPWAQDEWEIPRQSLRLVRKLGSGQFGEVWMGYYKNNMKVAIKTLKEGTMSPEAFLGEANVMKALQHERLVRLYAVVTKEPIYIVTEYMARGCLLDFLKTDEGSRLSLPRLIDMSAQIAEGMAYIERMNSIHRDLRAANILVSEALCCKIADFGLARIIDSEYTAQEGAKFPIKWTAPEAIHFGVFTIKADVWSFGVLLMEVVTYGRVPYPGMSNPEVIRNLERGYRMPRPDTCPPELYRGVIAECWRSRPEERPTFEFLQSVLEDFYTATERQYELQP", "test": "SelectScreen kinase profiling", "conditions": "5 μM", "protocol": "as §1"}, "[7]": {"target": "CHEK1 (CHK1) (Homo sapiens, UniProt O14757)", "test": "SelectScreen kinase profiling", "conditions": "5 μM", "protocol": "as §1"}, "[8]": {"target": "DYRK3 (Homo sapiens, UniProt O43781)", "test": "SelectScreen kinase profiling", "conditions": "5 μM", "protocol": "as §1"}, "[9]": {"target": "ERBB4 (HER4) (Homo sapiens, UniProt Q15303)", "sequence (Q15303 26-1308)": "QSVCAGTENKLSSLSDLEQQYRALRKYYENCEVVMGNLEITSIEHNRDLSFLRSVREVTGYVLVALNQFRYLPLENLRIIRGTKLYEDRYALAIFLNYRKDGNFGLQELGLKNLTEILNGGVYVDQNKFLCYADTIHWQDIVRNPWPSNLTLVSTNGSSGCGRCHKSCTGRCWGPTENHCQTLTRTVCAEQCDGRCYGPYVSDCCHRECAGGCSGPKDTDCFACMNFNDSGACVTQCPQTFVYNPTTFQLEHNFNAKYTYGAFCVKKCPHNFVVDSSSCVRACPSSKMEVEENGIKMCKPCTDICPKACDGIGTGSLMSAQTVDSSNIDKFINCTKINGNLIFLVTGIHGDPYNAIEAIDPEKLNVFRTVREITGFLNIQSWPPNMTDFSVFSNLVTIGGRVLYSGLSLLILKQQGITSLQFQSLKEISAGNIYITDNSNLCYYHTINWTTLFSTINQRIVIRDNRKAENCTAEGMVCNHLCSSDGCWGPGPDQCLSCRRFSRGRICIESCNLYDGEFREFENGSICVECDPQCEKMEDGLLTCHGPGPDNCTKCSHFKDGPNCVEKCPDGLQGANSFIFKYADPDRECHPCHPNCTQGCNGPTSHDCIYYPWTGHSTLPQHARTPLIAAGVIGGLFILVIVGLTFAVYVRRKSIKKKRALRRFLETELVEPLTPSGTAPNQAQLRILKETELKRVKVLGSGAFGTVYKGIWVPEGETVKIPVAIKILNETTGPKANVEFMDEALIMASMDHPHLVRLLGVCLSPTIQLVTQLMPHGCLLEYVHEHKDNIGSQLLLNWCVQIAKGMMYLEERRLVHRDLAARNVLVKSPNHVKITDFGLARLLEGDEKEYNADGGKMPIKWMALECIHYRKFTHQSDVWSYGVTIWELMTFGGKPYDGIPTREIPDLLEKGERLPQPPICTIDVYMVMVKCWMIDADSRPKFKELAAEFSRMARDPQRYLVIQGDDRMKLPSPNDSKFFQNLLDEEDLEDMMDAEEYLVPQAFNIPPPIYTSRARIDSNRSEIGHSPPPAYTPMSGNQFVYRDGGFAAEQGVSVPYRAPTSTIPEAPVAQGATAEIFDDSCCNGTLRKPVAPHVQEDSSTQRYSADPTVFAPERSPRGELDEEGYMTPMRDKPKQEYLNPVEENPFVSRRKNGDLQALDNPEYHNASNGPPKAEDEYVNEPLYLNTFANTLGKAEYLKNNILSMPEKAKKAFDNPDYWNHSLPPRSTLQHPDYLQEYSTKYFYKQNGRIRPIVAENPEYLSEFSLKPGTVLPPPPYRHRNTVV", "test": "SelectScreen kinase profiling", "conditions": "5 μM", "protocol": "as §1"}, "[10]": {"target": "FGR (Homo sapiens, UniProt P09769)", "test": "SelectScreen kinase profiling", "conditions": "FGR; 5 μM", "protocol": "as §1"}, "[11]": {"target": "FLT3 (Homo sapiens, UniProt P36888)", "test": "SelectScreen kinase profiling", "conditions": "5 μM", "protocol": "as §1"}, "[12]": {"target": "FRK (PTK5) (Homo sapiens, UniProt P42685)", "test": "SelectScreen kinase profiling", "conditions": "5 μM", "protocol": "as §1"}, "[13]": {"target": "FYN (Homo sapiens, UniProt P06241)", "test": "SelectScreen kinase profiling", "conditions": "FYN; 5 μM", "protocol": "as §1"}, "[14]": {"target": "GSK3B (GSK3 beta) (Homo sapiens, UniProt P49841)", "test": "SelectScreen kinase profiling", "conditions": "5 μM", "protocol": "as §1"}, "[15]": {"target": "IKBKB (IKK beta) (Homo sapiens, UniProt O14920)", "test": "SelectScreen kinase profiling", "conditions": "5 μM", "protocol": "as §1"}, "[16]": {"target": "LCK (Homo sapiens, UniProt P06239)", "sequence (P06239 whole entry)": "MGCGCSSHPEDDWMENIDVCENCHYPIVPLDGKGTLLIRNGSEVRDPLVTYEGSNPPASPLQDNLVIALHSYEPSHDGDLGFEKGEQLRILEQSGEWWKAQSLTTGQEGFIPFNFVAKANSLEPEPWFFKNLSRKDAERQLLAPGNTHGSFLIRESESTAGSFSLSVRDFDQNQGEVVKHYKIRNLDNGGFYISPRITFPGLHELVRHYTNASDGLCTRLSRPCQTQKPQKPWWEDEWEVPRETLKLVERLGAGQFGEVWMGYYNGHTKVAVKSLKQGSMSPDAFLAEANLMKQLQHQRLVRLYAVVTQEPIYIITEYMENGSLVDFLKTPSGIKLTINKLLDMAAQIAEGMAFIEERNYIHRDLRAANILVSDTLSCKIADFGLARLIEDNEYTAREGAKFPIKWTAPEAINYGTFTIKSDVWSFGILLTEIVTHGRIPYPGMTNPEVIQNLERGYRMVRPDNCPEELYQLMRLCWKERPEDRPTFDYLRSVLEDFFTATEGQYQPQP", "test": "SelectScreen kinase profiling", "conditions": "5 μM", "protocol": "as §1"}, "[17]": {"target": "LYN B (Homo sapiens, UniProt P07948)", "test": "SelectScreen kinase profiling", "conditions": "5 μM", "protocol": "as §1"}, "[18]": {"target": "MAPK1 (ERK2) (Homo sapiens, UniProt P28482)", "test": "SelectScreen kinase profiling", "conditions": "5 μM", "protocol": "as §1"}, "[19]": {"target": "MAPK14 (p38 alpha) (Homo sapiens, UniProt Q16539)", "test": "SelectScreen kinase profiling", "conditions": "5 μM", "protocol": "as §1"}, "[20]": {"target": "MAPK14 (p38 alpha) Direct (Homo sapiens, UniProt Q16539)", "test": "SelectScreen kinase profiling", "conditions": "5 μM", "protocol": "as §1"}, "[21]": {"target": "MARK2 (Homo sapiens, UniProt Q7KZI7)", "sequence (Q7KZI7 whole entry)": "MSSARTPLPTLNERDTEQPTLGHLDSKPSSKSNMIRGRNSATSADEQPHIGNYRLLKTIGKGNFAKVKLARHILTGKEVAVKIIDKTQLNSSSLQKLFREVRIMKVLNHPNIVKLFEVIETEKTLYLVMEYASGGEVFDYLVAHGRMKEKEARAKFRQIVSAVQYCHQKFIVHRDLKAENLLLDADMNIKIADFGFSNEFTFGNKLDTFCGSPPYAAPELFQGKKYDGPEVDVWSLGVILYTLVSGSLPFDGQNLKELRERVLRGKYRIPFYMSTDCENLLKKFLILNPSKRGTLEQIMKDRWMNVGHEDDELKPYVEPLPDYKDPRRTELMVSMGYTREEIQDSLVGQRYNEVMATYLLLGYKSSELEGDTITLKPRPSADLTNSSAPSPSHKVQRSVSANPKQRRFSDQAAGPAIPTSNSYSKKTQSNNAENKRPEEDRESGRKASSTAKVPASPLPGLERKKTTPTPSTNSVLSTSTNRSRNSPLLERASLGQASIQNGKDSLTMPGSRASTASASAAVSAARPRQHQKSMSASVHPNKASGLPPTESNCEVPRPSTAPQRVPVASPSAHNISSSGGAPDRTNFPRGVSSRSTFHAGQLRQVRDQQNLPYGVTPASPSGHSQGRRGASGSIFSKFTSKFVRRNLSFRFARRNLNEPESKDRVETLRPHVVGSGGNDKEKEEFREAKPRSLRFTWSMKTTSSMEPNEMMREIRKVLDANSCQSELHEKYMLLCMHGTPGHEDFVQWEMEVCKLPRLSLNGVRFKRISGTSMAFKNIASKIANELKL", "test": "SelectScreen kinase profiling", "conditions": "5 μM", "protocol": "as §1"}, "[22]": {"target": "MET (cMet) (Homo sapiens, UniProt P08581)", "sequence (P08581 25-1390)": "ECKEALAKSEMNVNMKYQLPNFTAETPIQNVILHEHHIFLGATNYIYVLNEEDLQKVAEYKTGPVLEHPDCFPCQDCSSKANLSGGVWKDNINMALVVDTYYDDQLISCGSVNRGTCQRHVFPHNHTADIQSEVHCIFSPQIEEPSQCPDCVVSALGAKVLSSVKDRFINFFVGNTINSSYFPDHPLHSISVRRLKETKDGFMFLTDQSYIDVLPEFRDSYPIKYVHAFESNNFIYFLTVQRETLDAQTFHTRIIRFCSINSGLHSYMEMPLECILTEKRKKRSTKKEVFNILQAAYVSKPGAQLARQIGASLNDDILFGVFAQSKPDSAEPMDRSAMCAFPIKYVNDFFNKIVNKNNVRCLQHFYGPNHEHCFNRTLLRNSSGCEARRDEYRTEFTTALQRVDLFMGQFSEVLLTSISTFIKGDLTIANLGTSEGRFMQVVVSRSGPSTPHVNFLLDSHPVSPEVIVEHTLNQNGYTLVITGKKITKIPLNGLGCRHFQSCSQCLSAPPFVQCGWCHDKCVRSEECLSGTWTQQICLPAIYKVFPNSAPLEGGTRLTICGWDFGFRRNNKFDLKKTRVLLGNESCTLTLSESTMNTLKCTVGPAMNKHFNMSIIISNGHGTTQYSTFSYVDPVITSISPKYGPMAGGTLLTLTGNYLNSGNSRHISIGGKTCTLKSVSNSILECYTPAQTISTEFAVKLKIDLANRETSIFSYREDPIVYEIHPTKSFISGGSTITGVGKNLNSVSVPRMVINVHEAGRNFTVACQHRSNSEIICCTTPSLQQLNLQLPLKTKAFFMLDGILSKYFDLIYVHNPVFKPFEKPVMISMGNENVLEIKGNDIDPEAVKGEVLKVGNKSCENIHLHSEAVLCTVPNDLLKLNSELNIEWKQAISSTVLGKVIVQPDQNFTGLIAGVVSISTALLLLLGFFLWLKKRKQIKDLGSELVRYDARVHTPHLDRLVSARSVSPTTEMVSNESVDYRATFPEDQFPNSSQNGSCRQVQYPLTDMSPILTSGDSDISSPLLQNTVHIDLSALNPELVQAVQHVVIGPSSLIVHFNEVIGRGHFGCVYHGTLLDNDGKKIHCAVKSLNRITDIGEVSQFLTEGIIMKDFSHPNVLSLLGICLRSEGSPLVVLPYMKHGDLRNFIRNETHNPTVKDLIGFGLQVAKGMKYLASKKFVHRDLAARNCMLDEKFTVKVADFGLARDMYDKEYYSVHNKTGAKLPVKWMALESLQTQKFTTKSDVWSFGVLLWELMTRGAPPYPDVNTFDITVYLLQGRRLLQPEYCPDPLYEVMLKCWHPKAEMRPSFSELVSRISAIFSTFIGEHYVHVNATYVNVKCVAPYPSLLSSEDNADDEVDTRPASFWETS", "test": "SelectScreen kinase profiling", "conditions": "5 μM", "protocol": "as §1"}, "[23]": {"target": "PRKACA (PKA) (Homo sapiens, UniProt P17612)", "test": "SelectScreen kinase profiling", "conditions": "5 μM", "protocol": "as §1"}, "[24]": {"target": "RET (Homo sapiens, UniProt P07949)", "test": "SelectScreen kinase profiling", "conditions": "5 μM", "protocol": "as §1"}, "[25]": {"target": "Src kinase (Homo sapiens, UniProt P12931)", "sequence (P12931 whole entry, the tested form may be a part)": "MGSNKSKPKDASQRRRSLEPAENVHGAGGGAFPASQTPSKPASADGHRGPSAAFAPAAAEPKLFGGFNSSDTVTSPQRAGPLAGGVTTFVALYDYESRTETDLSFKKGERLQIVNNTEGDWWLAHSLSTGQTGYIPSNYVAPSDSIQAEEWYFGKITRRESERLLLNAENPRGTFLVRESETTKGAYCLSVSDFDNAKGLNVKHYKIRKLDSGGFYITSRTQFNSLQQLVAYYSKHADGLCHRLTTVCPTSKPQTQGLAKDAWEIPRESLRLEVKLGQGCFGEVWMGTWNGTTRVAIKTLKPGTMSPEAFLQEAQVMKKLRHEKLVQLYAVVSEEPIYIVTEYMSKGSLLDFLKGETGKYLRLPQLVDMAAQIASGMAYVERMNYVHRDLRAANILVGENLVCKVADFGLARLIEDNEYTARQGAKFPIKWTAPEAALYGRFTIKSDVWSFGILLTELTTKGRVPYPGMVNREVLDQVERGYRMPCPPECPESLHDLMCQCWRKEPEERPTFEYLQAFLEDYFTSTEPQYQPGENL", "test": "Z'-LYTE kinase assay (Invitrogen), Src", "design": "full-length kinase in the Z-LYTE assay vs. kinase domain in the current study; purchased Millipore", "how_it_was_run": "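Human Src activity measured by FRET-based Z′-LYTE Tyr 02 peptide assay at ATP near KM,ATP unless noted. IC50s and single-point inhibition determined over varying macrocycle concentrations. Non-Src kinases tested via a commercial profiling service.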"}},
  "data": [
    {"compound": "NC(=O)[C@@H]1CCCNC(=O)[C@H](Cc2ccc([N+](=O)[O-])cc2)NC(=O)[C@H](Cc2ccco2)NC(=O)[C@H](CC2CC2)NC(=O)/C=C/C(=O)N1", "note": "[trans-A10-B1-C5-D6]", "values": [
      {"measurement": "off-target inhibition in kinase panel (in words)", "setting": "[1]", "result": "no significant off-target inhibition"},
      {"measurement": "% inhibition", "setting": "[2]", "result": 18, "unit": "%"},
      {"measurement": "% inhibition", "setting": "[3]", "result": "−1", "unit": "%"},
      {"measurement": "% inhibition", "setting": "[4]", "result": 10, "unit": "%"},
      {"measurement": "% inhibition", "setting": "[5]", "result": 0, "unit": "%"},
      {"measurement": "% inhibition", "setting": "[6]", "result": 10, "unit": "%"},
      {"measurement": "% inhibition", "setting": "[7]", "result": "−15", "unit": "%"},
      {"measurement": "% inhibition", "setting": "[8]", "result": 4, "unit": "%"},
      {"measurement": "% inhibition", "setting": "[9]", "result": 4, "unit": "%"},
      {"measurement": "% inhibition", "setting": "[10]", "result": 13, "unit": "%"},
      {"measurement": "% inhibition", "setting": "[11]", "result": 7, "unit": "%"},
      {"measurement": "% inhibition", "setting": "[12]", "result": 15, "unit": "%"},
      {"measurement": "% inhibition", "setting": "[13]", "result": "−1", "unit": "%"},
      {"measurement": "% inhibition", "setting": "[14]", "result": "−6", "unit": "%"},
      {"measurement": "% inhibition", "setting": "[15]", "result": "−1", "unit": "%"},
      {"measurement": "% inhibition", "setting": "[16]", "result": 17, "unit": "%"},
      {"measurement": "% inhibition", "setting": "[17]", "result": 7, "unit": "%"},
      {"measurement": "% inhibition", "setting": "[18]", "result": "−3", "unit": "%"},
      {"measurement": "% inhibition", "setting": "[19]", "result": 32, "unit": "%"},
      {"measurement": "% inhibition", "setting": "[20]", "result": "−9", "unit": "%"},
      {"measurement": "% inhibition", "setting": "[21]", "result": 1, "unit": "%"},
      {"measurement": "% inhibition", "setting": "[22]", "result": "−8", "unit": "%"},
      {"measurement": "% inhibition", "setting": "[23]", "result": "−1", "unit": "%"},
      {"measurement": "% inhibition", "setting": "[24]", "result": 6, "unit": "%"},
      {"measurement": "% inhibition", "setting": "[25]; SRC, 5 μM, data from FIG. 8 and Table 6", "result": 86, "unit": "%"},
      {"measurement": "mode of Src inhibition", "setting": "[25]; apparent KM for ATP versus macrocycle concentration", "result": "ATP-competitive"}
    ]}
  ]
}
